Measurements reported in PMC4507179, “Insights into the key interactions between human protein phosphatase 5 and cantharidin using molecular dynamics and site-directed mutagenesis bioassays” (Scientific Reports, 2015).
Residue numbers refer to the chain shown, from its start.

Columns and labels:
[1] = biological target: T1, HuPP5 R225A (Homo sapiens, UniProt P53041, R400A); assay: Inhibition of recombinant HuPP5 mutant R225A (p-NPP substrate); assay type: biochemical; settings: for IC50: recombinant HuPP5 R225A, p-NPP, mean ± S.D., three independent experiments; for ΔΔGbind-exp, R225A: ΔΔGbind = RTln(IC50 mutant/IC50 wild-type)
T1 construct: 6xHis (N); made in house; host or cells: Escherichia coli BL21(DE3)pLysS, pET43.1b
T1 sequence (P53041 1-499 R400A): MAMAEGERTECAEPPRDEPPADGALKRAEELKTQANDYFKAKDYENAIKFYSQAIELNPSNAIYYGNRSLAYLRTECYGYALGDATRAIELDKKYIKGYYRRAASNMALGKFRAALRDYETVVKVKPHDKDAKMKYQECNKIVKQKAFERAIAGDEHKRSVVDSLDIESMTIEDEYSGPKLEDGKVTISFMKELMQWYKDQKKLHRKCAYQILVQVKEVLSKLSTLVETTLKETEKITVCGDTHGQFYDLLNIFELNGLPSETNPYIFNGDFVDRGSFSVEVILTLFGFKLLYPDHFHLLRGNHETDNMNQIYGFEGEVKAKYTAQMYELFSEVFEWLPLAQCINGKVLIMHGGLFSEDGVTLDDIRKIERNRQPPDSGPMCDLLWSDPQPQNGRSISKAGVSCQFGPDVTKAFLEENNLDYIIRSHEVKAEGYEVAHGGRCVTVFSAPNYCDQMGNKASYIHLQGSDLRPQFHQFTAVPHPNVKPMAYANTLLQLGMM
Text: (§1) A PCR-based site-directed mutagenesis approach was used to change Arg 100 to Ala (R100A), His 129 to Ala (H129A), and Arg 225 to Ala (R225A). All recombinant enzymes were soluble, expressed in E. coli and purified to homogeneity (>90% pure) (Figure S9). […] However, their inhibitory activity was suppressed against the three individually site-directed mutagenesis HuPP5: R100A, H129A, and R225A (Table S7). H129A appears to be most unfavorable to the binding of these inhibitors due to the highest IC50 values (>10 mM). […]
(§2) Site-directed mutagenesis. The sequence encoding the ORF of Human PP5 (HuPP5) was isolated from the liver cancer cell line SMMC-7721 by PCR using primers that introduced a Nde I site and 6xHis tag at the forward one, and a Xho I site at the reverse one. The PCR products were cloned into pCR2.1 (Invitrogen, Carlsbad, CA, USA) and transformed into DH5α (TaKaRa, Dalian, China) and then sequenced (AuGCT, Inc., Beijing, China). The mutants were generated using the QuikChange® site-directed mutagenesis kit (Stratagene, La Jolla, CA, USA) following the instruction manual. The mutagenic primers were designed based on the sequence of wild-type […]
(§3) The mutants were sequenced to confirm the presence of the desired mutations and the lack of undesired mutations.
(§4) Protein expression and purification. The wild-type and mutants HuPP5 were then cloned into the corresponding sites of pET43.1b (Novagen, Madison, WI, USA) and transformed into Escherichia coli BL21(DE3)pLysS (Novagen, Madison, WI, USA). Proteins were expressed in LB (also on this page, place not known: scan ning. T he Cβ -H Cβ -Cγ. energ y tantbinding mu wildtypeG G G −−ΔΔ =Δ −Δ tantbinding muG −Δ binding wildtypeG −Δ binding re spectively. bindingGΔΔ binding (Invitrogen , USA ) site -directed (Stratagene , USA ) wild -type S 5. purification . s ites (Novagen , USA )) […]
(§5) (Luria-Bertani) broth (containing 2 mM MnCl2, 100 μg/ml ampicillin and 34 μg/ml chloramphenicol) and induced with 0.1 mM IPTG (isopropyl β-thiogalactoside) for 24 h at 18 ℃.
(§6) Cells were harvested by centrifugation (8,000 g for 10 min at 4 ℃) and were lysed by sonication in buffer A (20 mM Tris-HCl, pH=8.0, 4 mM MnCl2, 300 mM NaCl) containing 20 mM imidazole, 0.1% β-mercaptoethanol, 1.0 mg/ml lysozyme and 1 mM PMSF. After centrifugation for 20 min at 20,000 g at 4 ℃, the supernatant was loaded to a buffer A pre-equilibrated Ni-NTA affinity column (Transgen, Beijing, China) to bind the 6xHis tagged protein. The reduction of non-specific interactions between the extract proteins and the matrix was achieved by washing the Ni-NTA resins with buffer B (20 mM Tris-HCl, pH=8.0, 300 mM NaCl, 1 mM EGTA, 0.1% β-mercaptoethanol, 4 mM MnCl2) containing 20 mM imidazole. Elution was then conducted using 150 mM imidazole in buffer B. The eluted HuPP5 fractions were pooled and dialyzed against buffer C (buffer B + 50% glycerol) overnight. Dialyzed samples were subjected to 12% SDS-PAGE and stained with Coomassie blue. Protein concentrations were determined using a BCA Protein Assay Kit (Pierce, Thermo Scientific, Rockford, IL, USA).
(§7) Enzymatic assays and inhibition studies. Phosphatase activity was measured using p-NPP (p-nitrophenyl phosphate) as substrate. Assays were performed in a 200 μL reaction containing 500 ng protein and assay buffer (20 mM p-NPP in 20 mM Tris (pH 7.4), 100 μM arachidonic acid, 1 mM EGTA, 0.1% β-mercaptoethanol and 0.1% ethanol). The reaction was initiated by adding the p-NPP and incubated at 35 ℃ for 10 min. Control reactions were assayed without enzyme.
(§8) Assays were terminated by addition of 200 μL of 5 N NaOH. Sample absorbance was measured at A410 using the TECANTM Infinite® 200 PRO multimode micro-plate reader after subtracting the appropriate background. Kinetic parameters were determined by using the Michaelis-Menten […]
(§9) plot analysis of data obtained under the assay conditions as mentioned above with the addition of […]

[2] = biological target: T2, HuPP5 R100A (Homo sapiens, UniProt P53041, R275A); assay: Inhibition of recombinant HuPP5 mutant R100A (p-NPP substrate); assay type: biochemical; settings: for IC50: recombinant HuPP5 R100A, p-NPP, mean ± S.D., three independent experiments; for ΔΔGbind-exp, R100A: ΔΔGbind = RTln(IC50 mutant/IC50 wild-type)
T2 construct: 6xHis (N); made in house; host or cells: Escherichia coli BL21(DE3)pLysS, pET43.1b
T2 sequence (P53041 1-499 R275A): T1 sequence (P53041 1-499 R400A) with R275A, A400R
Text: as §1, §2, §3, §4, §5, §6, §7, §8, §9

[3] = biological target: T3, recombinant wild-type HuPP5 (Homo sapiens, UniProt P53041); assay: Inhibition of recombinant wild-type HuPP5 phosphatase activity (p-NPP substrate); assay type: biochemical; settings: mean ± S.D., three independent experiments
T3 construct: 6xHis (N); made in house; host or cells: Escherichia coli BL21(DE3)pLysS, pET43.1b
T3 sequence (P53041 1-499): T1 sequence (P53041 1-499 R400A) with A400R
Method: The structures for the manganese-containing systems (Figure S2) were taken from the Research Collaboration for Structural Bioinformatics protein database (RCSB Protein Data Bank, PDB ID: 3H63; 3H61; 3H64)[22], and all the structures were visualized using pymol 1.3 r1 edu. Manganese-related force field parameters were determined using Seminario’s method. Atomic single charge was calculated using the restrained electrostatic potential (RESP) fitting protocol. The Quantum Mechanics (QM) and Molecular Mechanics (MM) vibrational frequencies were compared to check the quality of the force field parameters. We performed three individual 50 ns MD at different seeds for each system. All MD simulations were performed with the AMBER12 package. All MD results were analyzed with the Ambertools13 package based on three individual 50 ns MD trajectories, and the data were averaged. Molecular Mechanics-Poisson-Boltzmann Surface Area (MM-PBSA)[32] calculations were performed on 1000 snapshots exacted from 40 ~ 50 ns production trajectories with a time interval of 10 ps to estimate the binding free energy. Since only the catalytic domain was used in the simulations, the starting point in our constructed structure corresponds to the 176th residue in the reference structure. […] The IC50 values of the three compounds against all HuPP5 proteins were calculated from the dose-dependent inhibition assay. […]
Cells were harvested by centrifugation (8,000 g for 10 min at 4 ℃) and were lysed by sonication in buffer A (20 mM Tris-HCl, pH=8.0, 4 mM MnCl2, 300 mM NaCl) containing 20 mM imidazole, 0.1% β-mercaptoethanol, 1.0 mg/ml lysozyme and 1 mM PMSF. […] Protein concentrations were determined using a BCA Protein Assay Kit (Pierce, Thermo Scientific, Rockford, IL, USA).
Enzymatic assays and inhibition studies. Phosphatase activity was measured using p-NPP (p-nitrophenyl phosphate) as substrate. […]

[4] = test system: PP5; set-up: method as in PMID 17200551, PMID 19025735, PMID 20331621; settings: read-out: relative IC50 value against PP5; cited from earlier work
[5] = biological target: T4, HuPP5 H129A (Homo sapiens, UniProt P53041, H304A); assay: Inhibition of recombinant HuPP5 mutant H129A (p-NPP substrate); assay type: biochemical; settings: for IC50: recombinant HuPP5 H129A, p-NPP; for ΔΔGbind-exp, H129A: ΔΔGbind = RTln(IC50 mutant/IC50 wild-type)
T4 construct: 6xHis (N); made in house; host or cells: Escherichia coli BL21(DE3)pLysS, pET43.1b
T4 sequence (P53041 1-499 H304A): T1 sequence (P53041 1-499 R400A) with H304A, A400R
Text: as §1, §2, §3, §4, §5, §6, §7, §8, §9

| SMILES | IC50 [1] [µM] | ΔΔGbind-exp, R225A [1] [kcal/mol] | IC50 [2] [µM] | ΔΔGbind-exp, R100A [2] [kcal/mol] | IC50 [3] [µM] | IC50 [4] [nM] | IC50 [5] [mM] | ΔΔGbind-exp, H129A [5] [kcal/mol] | IC50 on R225A higher than that of cantharidin ([1]; ratio of IC50 values on HuPP5 R225A, versus cantharidin) [fold] | IC50 on R225A higher than that of norcantharidin ([1]; ratio of IC50 values on HuPP5 R225A, versus norcantharidin) [fold] |
| --- | --- | --- | --- | --- | --- | --- | --- | --- | --- | --- |
| C[C@@]12C(=O)OC(=O)[C@]1(C)[C@H]1CC[C@@H]2O1 [Cantharidin, cantharidin] | 21.9 ± 1.12 | 2.03 | 4.05 ± 0.34 | 0.97 | 0.82 | 600 | > 10 | >5.74 |  |  |
| O=C(O)[C@@H]1[C@H](C(=O)O)[C@H]2CC[C@@H]1O2 [Endothall, endothall] | 1060 ± 63.7 | 3.46 | 18.4 ± 0.39 | 0.99 | 3.64 |  | > 10 | >4.83 | 48.54 | 6.47 |
| O=C1OC(=O)[C@H]2[C@@H]1[C@@H]1CC[C@H]2O1 [Norcantharidin, norcantharidin] | 164 ± 9.84 | 2.24 | 17.8 ± 1.44 | 0.88 | 4.18 |  | > 10 | >4.75 |  |  |
